Reference: paper PMC10408569, “Recruitment of hexahydroquinoline as anticancer scaffold targeting inhibition of wild and mutants EGFR (EGFR^WT, EGFR^T790M, and EGFR^L858R)” (Journal of Enzyme Inhibition and Medicinal Chemistry, 2023)

Experiments:
CCRF-CEM = assay: NCI-60 anticancer screening (SRB); type: cell-based; conditions: Homo sapiens
K-562 = assay: NCI-60 anticancer screening (SRB); type: cell-based; conditions: Homo sapiens, K562
RPMI-8226 = assay: NCI-60 anticancer screening (SRB); type: cell-based; conditions: Homo sapiens
SR = assay: NCI-60 anticancer screening (SRB); type: cell-based; conditions: Homo sapiens
A549/ATCC = assay: NCI-60 anticancer screening (SRB); type: cell-based; conditions: Homo sapiens
EKVX = assay: NCI-60 anticancer screening (SRB); type: cell-based; conditions: Homo sapiens
HOP-92 = assay: NCI-60 anticancer screening (SRB); type: cell-based; conditions: Homo sapiens
NCI-H226 = assay: NCI-60 anticancer screening (SRB); type: cell-based; conditions: Homo sapiens
HCT-116 = assay: NCI-60 anticancer screening (SRB); type: cell-based; conditions: Homo sapiens
HCT-15 = assay: NCI-60 anticancer screening (SRB); type: cell-based; conditions: Homo sapiens
SF-268 = assay: NCI-60 anticancer screening (SRB); type: cell-based; conditions: Homo sapiens
SF-295 = assay: NCI-60 anticancer screening (SRB); type: cell-based; conditions: Homo sapiens
SF-539 = assay: NCI-60 anticancer screening (SRB); type: cell-based; conditions: Homo sapiens
SNB-19 = assay: NCI-60 anticancer screening (SRB); type: cell-based; conditions: Homo sapiens
SNB-75 = assay: NCI-60 anticancer screening (SRB); type: cell-based; conditions: Homo sapiens
U251 = assay: NCI-60 anticancer screening (SRB); type: cell-based; conditions: Homo sapiens, U-251
MALME-3M = assay: NCI-60 anticancer screening (SRB); type: cell-based; conditions: Homo sapiens
MDA-MB-435 = assay: NCI-60 anticancer screening (SRB); type: cell-based; conditions: Homo sapiens
SK-MEL-28 = assay: NCI-60 anticancer screening (SRB); type: cell-based; conditions: Homo sapiens
UACC-257 = assay: NCI-60 anticancer screening (SRB); type: cell-based; conditions: Homo sapiens
IGROV1 = assay: NCI-60 anticancer screening (SRB); type: cell-based; conditions: Homo sapiens, IGROV-1
OVCAR-5 = assay: NCI-60 anticancer screening (SRB); type: cell-based; conditions: Homo sapiens
OVCAR-8 = assay: NCI-60 anticancer screening (SRB); type: cell-based; conditions: Homo sapiens
SK-OV-3 = assay: NCI-60 anticancer screening (SRB); type: cell-based; conditions: Homo sapiens
ACHN = assay: NCI-60 anticancer screening (SRB); type: cell-based; conditions: Homo sapiens
PC-3 = assay: NCI-60 anticancer screening (SRB); type: cell-based; conditions: Homo sapiens
DU-145 = assay: NCI-60 anticancer screening (SRB); type: cell-based; conditions: Homo sapiens
MDA-MB-468 = assay: NCI-60 anticancer screening (SRB); type: cell-based; conditions: Homo sapiens
EGFR^T790M = EGFR^T790M (Homo sapiens, UniProt P00533, T790M); assay: biochemical
EGFR^L858R = EGFR^L858R (Homo sapiens, UniProt P00533, L858R); assay: biochemical
EGFR^WT = EGFR^WT (Homo sapiens, UniProt P00533); assay: EGFR kinase inhibitory assay (HTRF)
[1] = leukemia, one dose 10 μM, read-out: Growth Inhibition Percentage (GI %)

EGFR^T790M, sequence (P00533 25-1210 T790M): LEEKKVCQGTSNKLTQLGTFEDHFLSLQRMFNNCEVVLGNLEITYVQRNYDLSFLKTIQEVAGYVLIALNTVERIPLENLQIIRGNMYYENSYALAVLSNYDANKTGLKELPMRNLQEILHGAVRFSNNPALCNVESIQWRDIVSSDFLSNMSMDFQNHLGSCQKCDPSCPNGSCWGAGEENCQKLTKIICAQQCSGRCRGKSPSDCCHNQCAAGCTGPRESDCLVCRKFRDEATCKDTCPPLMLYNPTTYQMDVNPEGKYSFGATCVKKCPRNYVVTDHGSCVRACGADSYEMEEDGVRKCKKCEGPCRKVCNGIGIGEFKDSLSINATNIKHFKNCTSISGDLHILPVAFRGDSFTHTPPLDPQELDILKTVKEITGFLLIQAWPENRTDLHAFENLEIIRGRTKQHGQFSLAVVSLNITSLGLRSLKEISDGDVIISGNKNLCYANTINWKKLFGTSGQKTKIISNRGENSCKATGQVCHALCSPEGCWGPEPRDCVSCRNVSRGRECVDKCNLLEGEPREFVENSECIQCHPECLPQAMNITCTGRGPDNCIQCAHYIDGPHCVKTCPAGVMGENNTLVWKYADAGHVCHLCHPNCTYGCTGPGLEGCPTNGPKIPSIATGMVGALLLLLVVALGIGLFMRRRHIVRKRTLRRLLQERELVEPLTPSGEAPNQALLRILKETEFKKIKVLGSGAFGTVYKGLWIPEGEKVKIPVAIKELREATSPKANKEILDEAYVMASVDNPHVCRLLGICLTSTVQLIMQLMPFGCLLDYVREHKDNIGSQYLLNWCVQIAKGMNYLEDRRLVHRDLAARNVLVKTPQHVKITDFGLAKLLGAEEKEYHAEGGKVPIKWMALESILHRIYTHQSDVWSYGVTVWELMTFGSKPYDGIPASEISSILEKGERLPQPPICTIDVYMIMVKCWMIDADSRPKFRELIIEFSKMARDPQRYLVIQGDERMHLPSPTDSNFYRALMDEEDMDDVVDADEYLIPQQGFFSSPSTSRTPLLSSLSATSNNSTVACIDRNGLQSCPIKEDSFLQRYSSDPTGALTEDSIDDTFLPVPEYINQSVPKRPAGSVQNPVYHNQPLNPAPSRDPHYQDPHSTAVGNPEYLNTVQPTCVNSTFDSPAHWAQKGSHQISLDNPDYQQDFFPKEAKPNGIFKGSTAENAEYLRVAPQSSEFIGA
EGFR^L858R, sequence (P00533 25-1210 L858R): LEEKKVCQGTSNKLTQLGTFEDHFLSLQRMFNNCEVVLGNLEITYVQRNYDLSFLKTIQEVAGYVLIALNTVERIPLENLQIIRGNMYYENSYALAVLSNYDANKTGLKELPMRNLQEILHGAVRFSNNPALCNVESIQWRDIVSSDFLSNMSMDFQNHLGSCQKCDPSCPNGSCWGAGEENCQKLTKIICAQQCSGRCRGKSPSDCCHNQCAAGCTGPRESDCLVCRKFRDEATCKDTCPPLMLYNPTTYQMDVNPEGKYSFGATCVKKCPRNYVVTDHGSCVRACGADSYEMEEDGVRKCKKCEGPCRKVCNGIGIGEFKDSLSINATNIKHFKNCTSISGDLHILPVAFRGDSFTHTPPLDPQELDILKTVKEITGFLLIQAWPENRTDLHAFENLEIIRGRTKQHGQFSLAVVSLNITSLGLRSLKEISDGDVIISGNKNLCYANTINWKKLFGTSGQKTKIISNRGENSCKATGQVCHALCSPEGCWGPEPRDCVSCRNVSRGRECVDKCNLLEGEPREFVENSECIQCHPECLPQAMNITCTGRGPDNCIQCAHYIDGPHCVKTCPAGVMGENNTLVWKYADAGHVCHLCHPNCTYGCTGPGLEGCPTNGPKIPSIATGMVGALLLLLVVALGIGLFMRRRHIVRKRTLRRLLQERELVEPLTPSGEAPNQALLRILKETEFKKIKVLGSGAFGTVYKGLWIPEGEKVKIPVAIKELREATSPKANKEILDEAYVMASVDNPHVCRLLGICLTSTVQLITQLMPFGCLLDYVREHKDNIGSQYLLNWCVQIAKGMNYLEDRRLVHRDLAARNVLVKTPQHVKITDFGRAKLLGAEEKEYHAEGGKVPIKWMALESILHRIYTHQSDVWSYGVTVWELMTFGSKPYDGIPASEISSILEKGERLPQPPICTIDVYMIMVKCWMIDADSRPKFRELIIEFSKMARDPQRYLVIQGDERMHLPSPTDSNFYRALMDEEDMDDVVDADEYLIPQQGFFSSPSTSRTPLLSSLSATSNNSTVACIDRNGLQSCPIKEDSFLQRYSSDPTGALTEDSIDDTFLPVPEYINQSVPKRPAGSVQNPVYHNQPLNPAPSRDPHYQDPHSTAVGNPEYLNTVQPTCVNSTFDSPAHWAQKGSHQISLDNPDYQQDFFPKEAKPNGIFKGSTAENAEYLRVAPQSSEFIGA
EGFR^WT, sequence (P00533 25-1210): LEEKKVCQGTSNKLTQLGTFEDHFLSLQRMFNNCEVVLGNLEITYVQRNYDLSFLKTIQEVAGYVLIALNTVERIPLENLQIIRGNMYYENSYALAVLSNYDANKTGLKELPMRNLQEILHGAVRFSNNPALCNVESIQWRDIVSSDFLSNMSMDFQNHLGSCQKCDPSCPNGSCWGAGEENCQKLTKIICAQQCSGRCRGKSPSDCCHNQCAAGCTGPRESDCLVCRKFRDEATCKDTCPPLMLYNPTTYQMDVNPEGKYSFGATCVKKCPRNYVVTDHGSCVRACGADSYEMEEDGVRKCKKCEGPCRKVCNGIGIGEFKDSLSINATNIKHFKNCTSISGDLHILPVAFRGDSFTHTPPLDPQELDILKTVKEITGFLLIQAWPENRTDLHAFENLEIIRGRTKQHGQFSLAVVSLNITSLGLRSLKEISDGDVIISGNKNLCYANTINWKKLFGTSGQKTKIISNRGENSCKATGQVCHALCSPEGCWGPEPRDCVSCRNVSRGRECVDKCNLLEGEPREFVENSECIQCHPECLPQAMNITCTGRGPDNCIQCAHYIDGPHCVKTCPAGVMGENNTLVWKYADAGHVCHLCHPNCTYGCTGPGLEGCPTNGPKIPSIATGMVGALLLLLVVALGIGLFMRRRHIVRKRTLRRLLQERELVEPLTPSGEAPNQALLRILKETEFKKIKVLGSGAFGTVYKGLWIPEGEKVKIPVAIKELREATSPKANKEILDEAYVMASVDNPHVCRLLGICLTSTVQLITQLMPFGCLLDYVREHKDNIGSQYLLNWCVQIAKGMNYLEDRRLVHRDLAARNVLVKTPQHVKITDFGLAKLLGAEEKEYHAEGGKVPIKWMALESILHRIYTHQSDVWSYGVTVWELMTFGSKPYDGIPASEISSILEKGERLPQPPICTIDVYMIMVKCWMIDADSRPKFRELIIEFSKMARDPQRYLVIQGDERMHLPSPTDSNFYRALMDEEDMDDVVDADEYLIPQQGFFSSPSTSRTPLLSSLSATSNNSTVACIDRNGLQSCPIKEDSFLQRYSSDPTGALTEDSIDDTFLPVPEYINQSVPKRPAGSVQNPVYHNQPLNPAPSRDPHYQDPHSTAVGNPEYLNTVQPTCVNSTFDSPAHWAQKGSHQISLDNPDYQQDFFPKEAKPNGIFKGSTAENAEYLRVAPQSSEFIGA

CCOC(=O)C1=C(N)N(c2ccccc2)C2=C(C(=O)CC(C)(C)C2)C1c1ccc(Cl)cc1Cl (racemic) [10c, (±)-Ethyl 2-amino-4–(2,4-dichlorophenyl)-7,7-dimethyl-5-oxo-1-phenyl-1,4,5,6,7,8-hexahydroquinoline-3-carboxylate]
GI50 (CCRF-CEM; five doses 0.01-100 µM, 48 h): 3.1 µM
inhibition at 10 µM (CCRF-CEM; [1]): 80%
inhibition at 10 µM (K-562; K-562, leukemia, one dose 10 μM, read-out: Growth Inhibition Percentage (GI %)): 87%
GI50 (K-562; K-562, five doses 0.01-100 µM, 48 h): 7.23 µM
inhibition at 10 µM (RPMI-8226; RPMI-8226, leukemia, one dose 10 μM, read-out: Growth Inhibition Percentage (GI %)): 92%
GI50 (RPMI-8226; RPMI-8226, five doses 0.01-100 µM, 48 h): 7.07 µM
GI50 (SR; five doses 0.01-100 µM, 48 h): 1.47 µM
inhibition at 10 µM (SR; [1]): 90%
inhibition at 10 µM (A549/ATCC; A549/ATCC, NSC lung cancer, one dose 10 μM, read-out: Growth Inhibition Percentage (GI %)): 73%
GI50 (A549/ATCC; A549, five doses 0.01-100 µM, 48 h): 1.88 µM
inhibition at 10 µM (EKVX; NSC lung cancer, one dose 10 μM, read-out: Growth Inhibition Percentage (GI %)): 81%
GI50 (EKVX; five doses 0.01-100 µM, 48 h): 2.62 µM
inhibition at 10 µM (HOP-92; HOP-92, NSC lung cancer, one dose 10 μM, read-out: Growth Inhibition Percentage (GI %)): 100%
GI50 (HOP-92; HOP-92, five doses 0.01-100 µM, 48 h): 3.89 µM
inhibition at 10 µM (NCI-H226; NCI-H226, NSC lung cancer, one dose 10 μM, read-out: Growth Inhibition Percentage (GI %)): 76%
GI50 (NCI-H226; NCI-H226, five doses 0.01-100 µM, 48 h): 2.34 µM
inhibition at 10 µM (HCT-116; HCT-116, colon cancer, one dose 10 μM, read-out: Growth Inhibition Percentage (GI %)): 86%
GI50 (HCT-116; HCT-116, five doses 0.01-100 µM, 48 h): 7.89 µM
inhibition at 10 µM (HCT-15; HCT-15, colon cancer, one dose 10 μM, read-out: Growth Inhibition Percentage (GI %)): 86%
GI50 (HCT-15; HCT-15, five doses 0.01-100 µM, 48 h): 1.52 µM
inhibition at 10 µM (SF-268; SF-268, CNS cancer, one dose 10 μM, read-out: Growth Inhibition Percentage (GI %)): 48%
GI50 (SF-268; SF-268, five doses 0.01-100 µM, 48 h): 5.32 µM
inhibition at 10 µM (SF-295; SF-295, CNS cancer, one dose 10 μM, read-out: Growth Inhibition Percentage (GI %)): 76%
GI50 (SF-295; SF-295, five doses 0.01-100 µM, 48 h): 2.03 µM
inhibition at 10 µM (SF-539; SF-539, CNS cancer, one dose 10 μM, read-out: Growth Inhibition Percentage (GI %)): 67%
GI50 (SF-539; SF-539, five doses 0.01-100 µM, 48 h): 3.78 µM
inhibition at 10 µM (SNB-19; SNB-19, CNS cancer, one dose 10 μM, read-out: Growth Inhibition Percentage (GI %)): 72%
GI50 (SNB-19; SNB-19, five doses 0.01-100 µM, 48 h): 2.92 µM
inhibition at 10 µM (SNB-75; SNB-75, CNS cancer, one dose 10 μM, read-out: Growth Inhibition Percentage (GI %)): 59%
GI50 (SNB-75; SNB-75, five doses 0.01-100 µM, 48 h): 5.33 µM
inhibition at 10 µM (U251; U251, CNS cancer, one dose 10 μM, read-out: Growth Inhibition Percentage (GI %)): 72%
GI50 (U251; U251, five doses 0.01-100 µM, 48 h): 2.46 µM
GI50 (MALME-3M; five doses 0.01-100 µM, 48 h): 2.93 µM
inhibition at 10 µM (MALME-3M; melanoma, one dose 10 μM, read-out: Growth Inhibition Percentage (GI %)): 72%
inhibition at 10 µM (MDA-MB-435; MDA-MB-435, melanoma, one dose 10 μM, read-out: Growth Inhibition Percentage (GI %)): 71%
GI50 (MDA-MB-435; MDA-MB-435, five doses 0.01-100 µM, 48 h): 3.21 µM
inhibition at 10 µM (SK-MEL-28; SK-MEL-28, melanoma, one dose 10 μM, read-out: Growth Inhibition Percentage (GI %)): 49%
GI50 (SK-MEL-28; SK-MEL-28, five doses 0.01-100 µM, 48 h): 6.67 µM
inhibition at 10 µM (UACC-257; UACC-257, melanoma, one dose 10 μM, read-out: Growth Inhibition Percentage (GI %)): 65%
GI50 (UACC-257; UACC-257, five doses 0.01-100 µM, 48 h): 2.88 µM
inhibition at 10 µM (IGROV1; IGROV1, ovarian cancer, one dose 10 μM, read-out: Growth Inhibition Percentage (GI %)): 41%
GI50 (IGROV1; IGROV1, five doses 0.01-100 µM, 48 h): 7.97 µM
inhibition at 10 µM (OVCAR-5; OVCAR-5, ovarian cancer, one dose 10 μM, read-out: Growth Inhibition Percentage (GI %)): 43%
GI50 (OVCAR-5; OVCAR-5, five doses 0.01-100 µM, 48 h): 7.26 µM
inhibition at 10 µM (OVCAR-8; OVCAR-8, ovarian cancer, one dose 10 μM, read-out: Growth Inhibition Percentage (GI %)): 63%
GI50 (OVCAR-8; OVCAR-8, five doses 0.01-100 µM, 48 h): 3.72 µM
inhibition at 10 µM (SK-OV-3; SK-OV-3, ovarian cancer, one dose 10 μM, read-out: Growth Inhibition Percentage (GI %)): 66%
GI50 (SK-OV-3; SK-OV-3, five doses 0.01-100 µM, 48 h): 3.35 µM
GI50 (ACHN; five doses 0.01-100 µM, 48 h): 1.83 µM
inhibition at 10 µM (ACHN; renal cancer, one dose 10 μM, read-out: Growth Inhibition Percentage (GI %)): 83%
inhibition at 10 µM (PC-3; PC-3, prostate cancer, one dose 10 μM, read-out: Growth Inhibition Percentage (GI %)): 90%
GI50 (PC-3; PC-3, five doses 0.01-100 µM, 48 h): 4.14 µM
inhibition at 10 µM (DU-145; DU-145, prostate cancer, one dose 10 μM, read-out: Growth Inhibition Percentage (GI %)): 54%
GI50 (DU-145; DU-145, five doses 0.01-100 µM, 48 h): 6.71 µM
inhibition at 10 µM (MDA-MB-468; MDA-MB-468, breast cancer, one dose 10 μM, read-out: Growth Inhibition Percentage (GI %)): 96%
GI50 (MDA-MB-468; MDA-MB-468, five doses 0.01-100 µM, 48 h): 6.83 µM
IC50 (EGFR^T790M): 0.586 ± 0.003 µM
IC50 (EGFR^L858R): 0.623 ± 0.005 µM
IC50 (EGFR^WT): 0.148 ± 0.04 µM
